From patent US20230167114A1, “MACROCYCLIC JAK INHIBITOR AND USE THEREOF” (Biopolar Hongye (Guangdong) Pharmaceutical Co., Ltd., priority 2020, published 2023)

What was measured:
Assay type in all cases: biochemical
JAK1 = JAK1 (Homo sapiens, UniProt P23458); assay: JAK kinase activity, homogeneous time-resolved fluorescence (JAK1 reaction system); conditions: ATP 2 μM, JAK1 protein 0.2 ng/μL; read-out: JAK 1 activity
Procedure: (§1) The activity measurement method of JAK kinase was to use homogeneous time-resolved fluorescence technique. The reaction was performed in 384 shallow well plates with a total reaction volume of 10 μL. The mixture of kinase protein, compound, ATP and substrate was carried out in a reaction buffer of 50 mM Hepes (pH7.0), NaN3 0.02%, BSA 0.01%, 0.1 mM orthocanadate, 5 mM MgCl2, and 1 mM DTT. After reacting for 1 hour, antibody capable of recognizing substrate phosphorylation and dye XL-615 and detection buffer (Cisbio) containing EDTA were added to the system. The reaction signal of kinase was detected by PE company's porous plate detector. The parameter settings were excitation light at 320 nm, emission light at 615 nm and 665 nm. The activity of JAK is indirectly reflected by the signal ratio of 665 nm and 615 nm. In the reaction, the background well without enzyme and the total enzyme activity well without compound were set.
(§2) The IC50 value of the compound inhibiting protein was obtained by the formula: Y=100/(1+10^((Log IC50−X)*HillSlope)).
In JAK1 reaction system, the concentration of ATP was 2 μM, and the concentration of JAK1 protein was 0.2 ng/μL.

JAK2 = JAK2 (Homo sapiens, UniProt O60674); assay: JAK kinase activity, homogeneous time-resolved fluorescence (JAK2 reaction system); conditions: ATP 2 μM, JAK2 protein 0.01 ng/μL
Procedure: as §1, §2
In JAK2 reaction system, the concentration of ATP was 2 μM, and the concentration of JAK2 protein was 0.01 ng/μL.

JAK3 = target: T1, JAK3 (Homo sapiens, UniProt P52333); assay: JAK kinase activity, homogeneous time-resolved fluorescence (JAK3 reaction system); conditions: ATP 2 μM, JAK3 protein 0.04 ng/μL; read-out: JAK 3 activity
T1 sequence (P52333 1-1124): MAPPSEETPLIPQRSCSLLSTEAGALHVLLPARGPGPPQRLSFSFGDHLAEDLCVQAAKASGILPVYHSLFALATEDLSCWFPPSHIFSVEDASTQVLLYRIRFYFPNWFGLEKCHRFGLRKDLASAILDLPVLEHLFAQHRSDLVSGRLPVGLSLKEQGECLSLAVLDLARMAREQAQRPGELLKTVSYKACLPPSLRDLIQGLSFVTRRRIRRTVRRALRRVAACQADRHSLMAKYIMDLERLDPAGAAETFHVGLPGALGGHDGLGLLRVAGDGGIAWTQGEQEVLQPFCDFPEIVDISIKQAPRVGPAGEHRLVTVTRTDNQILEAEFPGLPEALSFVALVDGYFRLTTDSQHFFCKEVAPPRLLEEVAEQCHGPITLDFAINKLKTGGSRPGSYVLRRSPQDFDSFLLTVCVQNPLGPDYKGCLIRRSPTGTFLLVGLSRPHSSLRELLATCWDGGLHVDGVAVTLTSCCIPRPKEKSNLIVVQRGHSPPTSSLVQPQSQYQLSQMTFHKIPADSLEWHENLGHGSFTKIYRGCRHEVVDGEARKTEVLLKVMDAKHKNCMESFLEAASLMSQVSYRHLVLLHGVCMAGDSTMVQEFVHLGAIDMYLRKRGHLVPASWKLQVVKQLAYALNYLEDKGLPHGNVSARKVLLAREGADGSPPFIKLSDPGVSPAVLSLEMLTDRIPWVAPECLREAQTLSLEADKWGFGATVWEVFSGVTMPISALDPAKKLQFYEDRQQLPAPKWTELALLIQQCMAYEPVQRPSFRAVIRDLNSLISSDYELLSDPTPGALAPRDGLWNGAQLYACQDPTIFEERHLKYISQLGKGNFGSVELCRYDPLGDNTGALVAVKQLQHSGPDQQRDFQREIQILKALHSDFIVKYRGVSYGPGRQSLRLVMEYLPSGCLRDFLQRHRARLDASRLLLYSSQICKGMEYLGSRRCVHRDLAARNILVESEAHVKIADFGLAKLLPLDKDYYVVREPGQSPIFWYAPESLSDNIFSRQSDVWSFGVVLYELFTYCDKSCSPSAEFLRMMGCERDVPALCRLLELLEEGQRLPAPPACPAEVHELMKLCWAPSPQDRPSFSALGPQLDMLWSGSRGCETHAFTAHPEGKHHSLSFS
Procedure: as §1, §2
In JAK3 reaction system, the concentration of ATP was 2 μM, and the concentration of JAK3 protein was 0.04 ng/μL.

TYK2 = TYK2 (Homo sapiens, UniProt P29597); assay: JAK kinase activity, homogeneous time-resolved fluorescence (TYK2 reaction system); conditions: ATP 2 μM, TYK2 protein 0.2 ng/μL; read-out: TYK 2 activity
Procedure: as §1, §2
In TYK2 reaction system, the concentration of ATP was 2 μM and the concentration of TYK2 protein was 0.2 ng/μL.

Chain of JAK1 (P23458 whole entry): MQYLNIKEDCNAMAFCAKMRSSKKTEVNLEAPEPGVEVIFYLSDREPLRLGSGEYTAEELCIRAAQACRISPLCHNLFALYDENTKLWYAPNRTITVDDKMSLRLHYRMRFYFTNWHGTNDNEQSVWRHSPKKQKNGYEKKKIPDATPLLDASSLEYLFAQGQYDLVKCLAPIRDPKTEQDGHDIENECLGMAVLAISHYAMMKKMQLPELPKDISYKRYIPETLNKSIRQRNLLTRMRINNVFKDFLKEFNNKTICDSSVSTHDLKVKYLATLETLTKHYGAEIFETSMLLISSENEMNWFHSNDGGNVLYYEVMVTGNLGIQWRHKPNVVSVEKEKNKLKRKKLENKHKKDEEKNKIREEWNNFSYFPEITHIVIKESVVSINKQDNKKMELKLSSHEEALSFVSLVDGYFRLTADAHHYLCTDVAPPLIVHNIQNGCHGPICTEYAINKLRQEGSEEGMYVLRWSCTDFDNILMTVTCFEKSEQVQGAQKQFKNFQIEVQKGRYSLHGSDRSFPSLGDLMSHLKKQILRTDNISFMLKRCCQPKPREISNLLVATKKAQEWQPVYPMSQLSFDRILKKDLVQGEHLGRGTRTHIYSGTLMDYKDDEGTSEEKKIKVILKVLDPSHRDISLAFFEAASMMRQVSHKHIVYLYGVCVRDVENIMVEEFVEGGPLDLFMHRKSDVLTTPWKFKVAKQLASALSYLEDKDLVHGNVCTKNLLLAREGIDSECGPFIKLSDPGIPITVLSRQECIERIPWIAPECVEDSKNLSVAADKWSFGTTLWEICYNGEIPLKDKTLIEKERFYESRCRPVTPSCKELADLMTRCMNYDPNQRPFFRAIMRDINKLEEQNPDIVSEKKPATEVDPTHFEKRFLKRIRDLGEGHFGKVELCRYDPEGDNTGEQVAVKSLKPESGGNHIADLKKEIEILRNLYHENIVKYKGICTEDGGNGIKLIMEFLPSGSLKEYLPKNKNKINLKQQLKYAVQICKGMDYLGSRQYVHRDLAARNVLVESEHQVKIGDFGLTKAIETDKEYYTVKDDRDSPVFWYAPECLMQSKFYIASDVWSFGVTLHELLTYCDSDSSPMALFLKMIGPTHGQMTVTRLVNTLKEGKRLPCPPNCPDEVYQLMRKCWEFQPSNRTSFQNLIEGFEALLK
Chain of JAK2 (O60674 whole entry): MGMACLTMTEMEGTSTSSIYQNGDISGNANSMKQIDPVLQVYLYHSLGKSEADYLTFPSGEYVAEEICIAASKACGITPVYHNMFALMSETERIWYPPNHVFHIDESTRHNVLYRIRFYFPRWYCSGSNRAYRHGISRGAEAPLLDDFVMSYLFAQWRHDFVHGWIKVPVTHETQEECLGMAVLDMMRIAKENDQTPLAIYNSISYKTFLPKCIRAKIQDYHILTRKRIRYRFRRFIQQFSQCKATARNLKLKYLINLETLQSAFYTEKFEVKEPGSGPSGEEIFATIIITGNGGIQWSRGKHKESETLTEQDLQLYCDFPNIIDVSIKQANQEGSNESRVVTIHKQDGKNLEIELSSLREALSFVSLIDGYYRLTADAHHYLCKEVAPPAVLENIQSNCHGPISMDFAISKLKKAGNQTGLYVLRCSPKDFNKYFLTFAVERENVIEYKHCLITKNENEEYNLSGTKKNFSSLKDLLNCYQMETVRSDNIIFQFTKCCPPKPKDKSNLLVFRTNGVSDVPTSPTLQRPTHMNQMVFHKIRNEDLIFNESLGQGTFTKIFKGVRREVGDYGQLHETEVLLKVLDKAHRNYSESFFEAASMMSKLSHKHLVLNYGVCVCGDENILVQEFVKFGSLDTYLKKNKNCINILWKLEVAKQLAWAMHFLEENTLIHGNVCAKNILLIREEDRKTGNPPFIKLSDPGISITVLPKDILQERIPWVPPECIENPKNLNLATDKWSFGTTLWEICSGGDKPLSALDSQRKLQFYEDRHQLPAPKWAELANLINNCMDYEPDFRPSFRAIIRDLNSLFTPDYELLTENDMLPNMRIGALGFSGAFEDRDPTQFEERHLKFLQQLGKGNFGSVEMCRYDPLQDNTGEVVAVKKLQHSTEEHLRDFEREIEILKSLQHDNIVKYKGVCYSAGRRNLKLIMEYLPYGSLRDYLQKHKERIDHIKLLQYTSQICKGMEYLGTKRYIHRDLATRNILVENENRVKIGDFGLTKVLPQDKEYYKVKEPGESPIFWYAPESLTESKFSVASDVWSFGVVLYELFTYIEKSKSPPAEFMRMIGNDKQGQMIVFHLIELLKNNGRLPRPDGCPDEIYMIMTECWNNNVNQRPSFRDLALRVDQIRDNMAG
Chain of TYK2 (P29597 whole entry): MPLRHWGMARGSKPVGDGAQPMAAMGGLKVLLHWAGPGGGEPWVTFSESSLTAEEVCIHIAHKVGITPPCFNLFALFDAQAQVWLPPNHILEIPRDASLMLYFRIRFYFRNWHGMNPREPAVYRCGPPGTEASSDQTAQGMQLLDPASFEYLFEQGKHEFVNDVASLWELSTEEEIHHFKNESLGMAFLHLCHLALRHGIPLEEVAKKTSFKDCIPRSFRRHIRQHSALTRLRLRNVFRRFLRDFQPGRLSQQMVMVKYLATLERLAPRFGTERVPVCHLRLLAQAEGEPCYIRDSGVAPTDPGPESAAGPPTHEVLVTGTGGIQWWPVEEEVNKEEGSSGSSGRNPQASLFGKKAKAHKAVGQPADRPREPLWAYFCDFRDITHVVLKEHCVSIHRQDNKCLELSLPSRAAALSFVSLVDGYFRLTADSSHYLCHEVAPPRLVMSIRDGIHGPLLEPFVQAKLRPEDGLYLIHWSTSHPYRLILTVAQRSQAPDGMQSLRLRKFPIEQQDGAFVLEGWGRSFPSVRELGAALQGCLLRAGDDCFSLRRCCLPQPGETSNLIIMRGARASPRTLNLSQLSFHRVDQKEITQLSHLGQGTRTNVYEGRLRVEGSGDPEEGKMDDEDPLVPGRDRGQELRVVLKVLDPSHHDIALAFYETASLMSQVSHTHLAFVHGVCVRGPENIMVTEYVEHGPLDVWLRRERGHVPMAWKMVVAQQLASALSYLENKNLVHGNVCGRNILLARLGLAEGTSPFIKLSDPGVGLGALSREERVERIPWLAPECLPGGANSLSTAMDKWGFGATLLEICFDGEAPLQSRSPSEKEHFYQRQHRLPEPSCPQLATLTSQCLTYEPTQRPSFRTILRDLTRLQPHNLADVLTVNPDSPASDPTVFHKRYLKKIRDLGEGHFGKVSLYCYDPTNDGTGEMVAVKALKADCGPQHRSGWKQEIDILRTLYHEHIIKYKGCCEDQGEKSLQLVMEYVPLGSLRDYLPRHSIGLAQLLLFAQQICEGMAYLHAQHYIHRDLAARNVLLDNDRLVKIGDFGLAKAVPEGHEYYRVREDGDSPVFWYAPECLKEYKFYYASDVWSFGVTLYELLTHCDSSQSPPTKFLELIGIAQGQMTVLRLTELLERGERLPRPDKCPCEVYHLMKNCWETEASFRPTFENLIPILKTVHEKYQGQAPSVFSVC

IC50 (JAK1) [nM]	IC50 (JAK2) [nM]	IC50 (JAK3) [nM]	IC50 (TYK2) [nM]	Compound
< 10	< 10	11 to 100	101 to 1000	Cc1cnc2nc1Nc1cccc(c1)CCCNC(=O)c1ccc(cc1S(C)(=O)=O)-c1cnc(F)c(c1)N2 [Compound 25, 2^6-fluoro-4^5-methyl-1^3-(methylsulfonyl)-3,5,10-triaza-4(2,4)-pyrimidina-2(3,5)-pyridina-1(1,4),6(1,3)-dibenzenacycloundecaphan-11-one]
11 to 100	101 to 1000	1000 to 10000	> 10000	Cc1cnc2nc1Nc1cc(ccc1F)CCNC(=O)c1ccc(cc1S(C)(=O)=O)-c1cnc(F)c(c1)N2 [Compound 29, 2^6,6^6-difluoro-4^5-methyl-1^3(methylsulfonyl)-3,5,9-triaza-4(2,4)-pyrimidina-2(3,5)-pyridina-1(1,4),6(1,3)-dibenzenacyclodecaphan-10-one]
101 to 1000	101 to 1000	101 to 1000	> 10000	CC(=O)Nc1cc2ccc1C(=O)NCCCCCNc1nc(ncc1C)Nc1cc-2cnc1F [Compound 43, N-(2^6-fluoro-4^5-methyl-12-oxo-3,5,11-triaza-4(2,4)-pyrimidina-2(3,5)-pyridina-1(l,4)-benzenacyclododecaphane-1^3-yl) acetamide]
1000 to 10000	1000 to 10000	1000 to 10000	> 10000	Cc1cnc2nc1NCCCCCNC(=O)c1ccc(cc1C(=O)Nc1ccccc1)-c1cnc(F)c(c1)N2 [Compound 42, 2^6-fluoro-4^5-methyl-12-oxo-N-phenyl-3,5,11-triaza-4(2,4)-pyrimidina-2(3,5)-pyridina-1(1,4)-benzenacyclododecaphane-1^3-formamide]
1000 to 10000	1000 to 10000	> 10000	> 10000	CCNc1cc2ccc1C(=O)NCCCCCNc1nc(ncc1C)Nc1cc-2cnc1F [Compound 44, 1^3-(ethylamino)-2^6-difluoro-4^5-methyl-3,5,11-triaza-4(2,4)-pyrimidina-2(3,5)-pyridina-1(1,4)-benzenacyclododecaphan-12-one]
11 to 100	11 to 100	11 to 100	1000 to 10000	O=C1NCCOCc2cccc(c2)Nc2nc(ncc2F)Nc2cc(cnc2F)-c2ccc1cc2 [Compound 16, 2^6,4^5-difluoro-oxa-3,5,11-triaza-4(2,4)-pyrimidina-2(3,5)-pyridina-1(1,4),6(1,3)-dibenzenacyclododecaphan-12-one]
< 10	< 10	< 10	11 to 100	Cc1cnc2nc1Nc1cccc(c1)CCNC(=O)c1ccc(cc1)-c1cnc(F)c(c1)N2 [Compound 22, 2^6-fluoro-4^5-methyl-3,5,9-triaza-4(2,4)-pyrimidina-2(3,5)-pyridina-1(1,4),6(1,3)-dibenzenacyclodecaphan-10-one]
101 to 1000	101 to 1000	1000 to 10000	> 10000	Cc1cnc2nc1Nc1cccc(c1)CCNC(=O)c1c(F)cc(cc1F)-c1cnc(F)c(c1)N2 [Compound 33, 1^3,1^5,2^6-trifluoro-4^5-methyl-3,5,9-triaza-4(2,4)-pyrimidina-2(3,5)-pyridina-1(1,4),6(1,3)-dibenzenacyclodecaphan-10-one]
101 to 1000	11 to 100	101 to 1000	1000 to 10000	Cc1cnc2nc1NCCCCCNC(=O)c1ccc(cc1C(=O)O)-c1cnc(F)c(c1)N2 [Compound 21]
1000 to 10000	101 to 1000	1000 to 10000	> 10000	O=C1NCCCCCNc2nc(ncc2F)Nc2cc(cnc2F)-c2ccc1cc2 [Compound 4, 2^6,4^5-difluoro-3,5,11-triaza-4(2,4)-pyrimidina-2(3,5)-pyridina-1(1,4)-benzenacyclododecaphan-12-one]
11 to 100	11 to 100	101 to 1000	1000 to 10000	Cc1cnc2nc1Nc1ccccc1CCCNC(=O)c1ccc(cc1F)-c1cnc(F)c(c1)N2 [Compound 32, 1^3,2^6-difluoro-4^5-methyl-3,5,10-triaza-4(2,4)-pyridina-1(5,2),2(3,5)-dipyridina-6(1,2)-benzenacycloundecaphan-11-one]
1000 to 10000	1000 to 10000	1000 to 10000	> 10000	Cc1cnc2nc1NCCCCCNC(=O)c1ccc(c(S(C)(=O)=O)c1)-c1cnc(F)c(c1)N2 [Compound 26, 2^6-fluoro-4^5-methyl-1^2-(methylsulfonyl)-3,5,11-triaza-4(2,4)-pyrimidina-2(3,5)-pyridina-1(1,4)-benzenacyclododecaphan-12-one]
11 to 100	101 to 1000	1000 to 10000	1000 to 10000	Cc1cnc2nc1NCCCCCNC(=O)c1ccc(cc1[N+](=O)[O-])-c1cnc(F)c(c1)N2 [Compound 10, 2^6-fluoro-4^5-methyl-1^3-nitro-3,5,11-triaza-4(2,4)-pyrimidina-2(3,5)-pyridina-1(1,4)-benzenacydododecaphan-12-one]
11 to 100	11 to 100	101 to 1000	1000 to 10000	Cc1cnc2nc1NCCCCCNC(=O)c1ccc(c(F)c1)-c1cnc(F)c(c1)N2 [Compound 3, 1^2,2^6-difluoro-4^5-methyl-3,5,11-triaza-4(2,4)-pyrimidina-2(3,5)-pyridina-1(1,4)-benzenacyclododecaphan-12-one]
101 to 1000	101 to 1000	1000 to 10000	> 10000	COC(=O)c1cc2ccc1C(=O)NCCCCCNc1nc(ncc1C)Nc1cc-2cnc1F [Compound 19, methyl 2^6-fluoro-4^5-methyl-12-oxo-3,5,11-triaza-4(2,4)-pyrimidina-2(3,5)-pyridina-1(1,4)-benzenacyclododecaphane-1^3-carboxylate]
11 to 100	101 to 1000	101 to 1000	1000 to 10000	Cc1cnc2nc1Nc1cccc(c1)COCCCC(=O)N1CCN(CC1)c1cnc(F)c(c1)N2 [Compound 15, 2^6-fluoro-4^5-methyl-8-oxa-3,5-diaza-4(2,4)-pyrimidina-1(1,4)-piperazina-2(3,5)-pyridina-6(1,3)-benzenacyclododecaphan-12-one]
1000 to 10000	1000 to 10000	1000 to 10000	> 10000	COc1cnc2nc1NCCCCCNC(=O)c1ccc(cc1)-c1cnc(F)c(c1)N2 [Compound 5, 2^6-fluoro-4^5-methoxy-3,5,11-triaza-4(2,4)-pyrimidina-2(3,5)-pyridina-1(1,4)-benzenacyclododecaphan-12-one]
11 to 100	101 to 1000	101 to 1000	> 10000	Cc1cnc2nc1Nc1ccc(F)c(c1)CCNC(=O)c1ccc(cc1S(C)(=O)=O)-c1cnc(F)c(c1)N2 [Compound 27, 2^6,6^4-difluoro-4^5-methyl-1^3(methylsulfonyl)-3,5,9-triaza-4(2,4)-pyrimidina-2(3,5)-pyridina-1(1,4),6(1,3)-dibenzenacyclodecaphan-10-one]
